Read-outs that look alike come from different tables or passages of the source.
Key:
[1] = biological target: T1, Aurora-2 (Aurora A) (Homo sapiens, UniProt O14965); test: Aurora-2 (Aurora A) Inhibition Assay, coupled enzyme assay; format: biochemical; details: 400 μM ATP, 30° C.; read-out: Aurora A kinase activity Ki
T1 sequence (O14965 1-403): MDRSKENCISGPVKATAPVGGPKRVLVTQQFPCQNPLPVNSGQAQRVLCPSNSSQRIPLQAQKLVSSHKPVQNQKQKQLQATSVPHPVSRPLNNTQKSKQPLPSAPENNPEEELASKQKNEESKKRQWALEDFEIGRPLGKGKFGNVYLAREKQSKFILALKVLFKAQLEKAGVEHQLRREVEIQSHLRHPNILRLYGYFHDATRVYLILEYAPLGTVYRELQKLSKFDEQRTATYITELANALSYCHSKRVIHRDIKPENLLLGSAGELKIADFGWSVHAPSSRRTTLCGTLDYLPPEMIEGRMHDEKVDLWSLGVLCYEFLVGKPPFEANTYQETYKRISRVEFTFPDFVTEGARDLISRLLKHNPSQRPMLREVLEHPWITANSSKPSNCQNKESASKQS
Procedure: Compounds were screened for their ability to inhibit Aurora-2 using a standard coupled enzyme assay (Fox et al., Protein Sci., (1998) 7, 2249). Assays were carried out in a mixture of 100 mM Hepes (pH7.5), 10 mM MgCl2, 1 mM DTT, 25 mM NaCl, 2.5 mM phosphoenolpyruvate, 300 μM NADH, 30 μg/ml pyruvate kinase and 10 μg/ml lactate dehydrogenase. Final substrate concentrations in the assay were 400 μM ATP (Sigma Chemicals) and 570 μM peptide (Kemptide, American Peptide, Sunnyvale, Calif.). Assays were carried out at 30° C. and in the presence of 40 nM Aurora-2.
An assay stock buffer solution was prepared containing all of the reagents listed above, with the exception of Aurora-2 and the test compound of interest. 55 μl of the stock solution was placed in a 96 well plate followed by addition of 2 μl of DMSO stock containing serial dilutions of the test compound (typically starting from a final concentration of 7.5 μM). The plate was preincubated for 10 minutes at 30° C. and the reaction initiated by addition of 10 μl of Aurora-2. Initial reaction rates were determined with a Molecular Devices SpectraMax Plus plate reader over a 10 minute time course. IC50 and Ki data were calculated from non-linear regression analysis using the Prism software package (GraphPad Prism version 3.0cx for Macintosh, GraphPad Software, San Diego Calif., USA).

[2] = system: Colo205 cells; test: Analysis of Cell Proliferation, 3H thymidine incorporation; format: cell-based; details: Homo sapiens
Procedure: Compounds were screened for their ability to inhibit cell proliferation using Colo205 cells obtained from ECACC and using the assay shown below.
Colo205 cells were seeded in 96 well plates and serially diluted compound was added to the wells in duplicate. Control groups included untreated cells, the compound diluent (0.1% DMSO alone) and culture medium without cells. The cells were then incubated for 72 or 96 hrs at 37C in an atmosphere of 5% CO2/95% humidity.
To measure proliferation, 3 h prior to the end of the experiment 0.5 μCi of 3H thymidine was added to each well. Cells were then harvested and the incorporated radioactivity counted on a Wallac microplate beta-counter. Dose response curves were calculated using either Prism 3.0 (GraphPad) or SoftMax Pro 4.3.1 LS (Molecular Devices) software.

[3] = biological target: Aurora-1 (Aurora B) (Homo sapiens, UniProt Q96GD4); test: Aurora-1 (Aurora B) Inhibition Assay (radiometric); format: biochemical; details: 800 μM ATP; read-out: Aurora B kinase activity Ki
Aurora-1 (Aurora B), sequence (Q96GD4 whole entry): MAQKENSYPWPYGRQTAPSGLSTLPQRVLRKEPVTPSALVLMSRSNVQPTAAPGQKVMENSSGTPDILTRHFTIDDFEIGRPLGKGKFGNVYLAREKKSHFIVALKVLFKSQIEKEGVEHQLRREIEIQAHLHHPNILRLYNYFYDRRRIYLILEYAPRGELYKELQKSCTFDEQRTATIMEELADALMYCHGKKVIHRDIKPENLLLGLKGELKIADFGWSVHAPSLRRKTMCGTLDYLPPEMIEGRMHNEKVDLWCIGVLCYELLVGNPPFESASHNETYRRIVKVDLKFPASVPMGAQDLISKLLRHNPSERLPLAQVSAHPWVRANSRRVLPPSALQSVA
Procedure: An assay buffer solution was prepared which consisted of 25 mM HEPES (pH 7.5), 10 mM MgCl2, 0.1% BSA and 10% glycerol. A 22 nM Aurora-B solution, also containing 1.7 mM DTT and 1.5 mM Kemptide (LRRASLG), was prepared in assay buffer. To 22 μL of the Aurora-B solution, in a 96-well plate, was added 2 μl of a compound stock solution in DMSO and the mixture allowed to equilibrate for 10 minutes at 25° C. The enzyme reaction was initiated by the addition of 16 μl stock [γ-^33P]-ATP Pi-ATP solution (˜20 nCi/μL) prepared in assay buffer, to a final assay concentration of 800 μM. The reaction was stopped after 3 hours by the addition of 16 μL 500 mM phosphoric acid and the levels of ^33P incorporation into the peptide substrate were determined by the following method.
A phosphocellulose 96-well plate (Millipore, Cat no. MAPHNOB50) was pre-treated with 100 μL of a 100 mM phosphoric acid prior to the addition of the enzyme reaction mixture (40 μL). The solution was left to soak on to the phosphocellulose membrane for 30 minutes and the plate subsequently washed four times with 200 μL of a 100 mM phosphoric acid. To each well of the dry plate was added 30 μL of Optiphase ‘SuperMix’ liquid scintillation cocktail (Perkin Elmer) prior to scintillation counting (1450 Microbeta Liquid Scintillation Counter, Wallac). Levels of non-enzyme catalyzed background radioactivity were determined by adding 16 μL of the 500 mM phosphoric acid to control wells, containing all assay components (which acts to denature the enzyme), prior to the addition of the [γ-^33P]-ATP solution. Levels of enzyme catalyzed ^33P incorporation were calculated by subtracting mean background counts from those measured at each inhibitor concentration. For each Ki determination 8 data points, typically covering the concentration range 0-10 μM compound, were obtained in duplicate (DMSO stocks were prepared from an initial compound stock of 10 mM with subsequent 1:2.5 serial dilutions). Ki values were calculated from initial rate data by non-linear regression using the Prism software package (Prism 3.0, Graphpad Software, San Diego, Calif.).

[4] = COLO 205, 96 h, 96 hours, read-out: IC50 cell proliferation after 96 hours
[5] = COLO 205, 72 h, 72 hours, read-out: IC50 cell proliferation after 72 hours

SMILES	Ki [1] [nM]	IC50 [2, 4] [nM]	Ki [3] [nM]	IC50 [2, 5] [nM]
CCC(=O)Nc1ccc(Sc2nc(Nc3cc(C)n[nH]3)cc(N3CCC(C(C)(C)C)CC3)n2)cc1 [Compound I-23]	≤ 10	50 to 200		
CN1CCC2(CCN(c3cc(Nc4cc(C5CC5)n[nH]4)nc(Sc4ccc(NC(=O)C5CC5)cc4)n3)CC2)C1 [Compound I-51]	≤ 10	≤ 50	10 to 50	
CCC(=O)Nc1ccc(Sc2nc(Nc3cc(C)n[nH]3)cc(N3CCC(N4CCC(F)C4)CC3)n2)cc1 (stereo not drawn) [Compound I-43]	≤ 10	≤ 50	10 to 50	
Cc1cc(Nc2cc(N3CCC4(CCN(C)C4)CC3)nc(Sc3ccc(NC(=O)C4CC4)cc3F)n2)[nH]n1 [Compound I-54]	≤ 10	≤ 50	10 to 50	
CCC(=O)Nc1ccc(Sc2nc(Nc3cc(C)n[nH]3)cc(N3CCC(O)(C(C)(C)C)C3)n2)cc1 (stereo not drawn) [Compound I-10]	≤ 10	50 to 200		
CCC(=O)Nc1ccc(Sc2nc(Nc3cc(C4CC4)n[nH]3)cc(N3CCC(F)C3)n2)cc1 (stereo not drawn) [Compound I-20]	≤ 10	50 to 200	≤ 10	
CCC(=O)Nc1ccc(Sc2nc(Nc3cc(C)n[nH]3)cc(N3CCC(O)(CC(C)(C)C)C3)n2)cc1 (stereo not drawn) [Compound I-2]	≤ 10			
CCC(=O)Nc1ccc(Sc2nc(Nc3cc(C4CC4)n[nH]3)cc(N3CCC(N4CCCC4)CC3)n2)cc1 [Compound I-56]	≤ 10	≤ 50	10 to 50	≤ 25
CCC(=O)Nc1ccc(Sc2nc(Nc3cc(C)n[nH]3)cc(N3CCC(C#N)CC3)n2)cc1 [Compound I-16]	≤ 10	50 to 200	10 to 50	
CCC(=O)Nc1ccc(Sc2nc(Nc3cc(C)n[nH]3)cc(N3CC[C@@H](NC(C)C)C3)n2)cc1 [Compound I-1]	10 to 50			
CCC(=O)Nc1ccc(Sc2nc(Nc3cc(C)n[nH]3)cc(N3CCC(N(C)C(C)(C)C)CC3)n2)cc1 [Compound I-47]	≤ 10	≤ 50	10 to 50	
Cc1cnc(Nc2cc(N3CCC[C@@H](N(C)C)C3)nc(Sc3ccc(NC(=O)C4CC4)cc3)n2)s1 [Compound I-13]	10 to 50	50 to 200		
CCC(=O)Nc1ccc(Sc2nc(Nc3cc(C)n[nH]3)cc(N3CC[C@H](NC)C3)n2)cc1 [Compound I-22]	≤ 10	50 to 200	10 to 50	
Cc1cnc(Nc2cc(N3CC[C@H](OC(C)C)C3)nc(Sc3ccc(NC(=O)C4CC4)cc3)n2)s1 [Compound I-5]	≤ 10		10 to 50	
CCC(=O)Nc1ccc(Sc2nc(Nc3cc(C)n[nH]3)cc(N3CC4CCCNC4C3)n2)cc1 (stereo not drawn) [Compound I-19]	≤ 10	50 to 200		
Cc1cnc(Nc2cc(N3CC[C@@H](N4CCCC4)C3)nc(Sc3ccc(NC(=O)C4CC4)cc3)n2)s1 [Compound I-37]	≤ 10	≤ 50		
Cc1cc(Nc2cc(N3CCC(N4CCN(C)CC4)CC3)nc(Sc3ccc(NC(=O)C4(C(F)(F)F)CC4)cc3)n2)[nH]n1 [Compound I-64]	≤ 10		10 to 50	≤ 25
CCC(=O)Nc1ccc(Sc2nc(Nc3ncc(C)s3)cc(N3CCC(N4CCCC4)CC3)n2)cc1 [Compound I-49]	≤ 10	≤ 50	10 to 50	

SMILES	Ki [1] [nM]	IC50 [2, 4] [nM]	Ki [3] [nM]	IC50 [2, 5] [nM]
CCC(=O)Nc1ccc(Sc2nc(Nc3cc(C)n[nH]3)cc(N3CCC(N4CCOCC4)CC3)n2)cc1 [Compound I-40]	≤ 10	≤ 50	10 to 50	
Cc1cc(Nc2cc(N3CCC(N4CCOCC4)CC3)nc(Sc3ccc(NC(=O)C4CC4(F)F)cc3)n2)[nH]n1 (stereo not drawn) [Compound I-75]	≤ 10		10 to 50	25 to 125
CCC(=O)Nc1ccc(Sc2nc(Nc3cc(C)n[nH]3)cc(N3CC[C@H](N(C)CC)C3)n2)cc1 [Compound I-50]	≤ 10	≤ 50		
CCC(=O)Nc1ccc(Sc2nc(Nc3cc(C)n[nH]3)cc(N3CCC(C)(N4CCCC4)CC3)n2)cc1 [Compound I-34]	≤ 10	50 to 200		
CCC(=O)Nc1ccc(Sc2nc(Nc3cc(C4CC4)n[nH]3)cc(N3CC[C@H](N4CCCC4)C3)n2)cc1 [Compound I-62]	≤ 10	≤ 50	10 to 50	
Cc1cc(Nc2cc(N3CCC4(CC3)OCCO4)nc(Sc3ccc(NC(=O)CC(F)(F)F)cc3)n2)[nH]n1 [Compound I-79]	≤ 10		≤ 10	25 to 125
Cc1cc(Nc2cc(N3CCC(N4CCCC4)CC3)nc(Sc3ccc(NC(=O)CC4CC4)cc3)n2)n[nH]1 [Compound I-83]	≤ 10			25 to 125
CCC(=O)Nc1ccc(Sc2nc(Nc3cc(C)n[nH]3)cc(N3CCC(N4CCCC4)C3)n2)cc1 (stereo not drawn) [Compound I-48]	≤ 10	≤ 50		
Cc1cnc(Nc2cc(N3CC[C@@H](O)C3)nc(Sc3ccc(NC(=O)C4CC4)cc3)n2)s1 [Compound I-6]	≤ 10		10 to 50	
Cc1cc(Nc2cc(N3CCCC(F)(F)C3)nc(Sc3ccc(NC(=O)CC(F)(F)F)cc3)n2)[nH]n1 [Compound I-26]	≤ 10	50 to 200	10 to 50	25 to 125
CCC(=O)Nc1ccc(Sc2nc(Nc3cc(C)[nH]n3)cc(N3CC[C@H](NC(C)C)C3)n2)cc1 [Compound I-28]	10 to 50	50 to 200		
Cc1cnc(Nc2cc(N3CCC[C@H](N(C)C)C3)nc(Sc3ccc(NC(=O)C4CC4)cc3)n2)s1 [Compound I-8]	10 to 50	50 to 200		
CCC(=O)Nc1ccc(Sc2nc(Nc3cc(C)n[nH]3)cc(N3CCC(N4CCCC4(C)C)C3)n2)cc1 (stereo not drawn) [Compound I-3]	≤ 10			
CN[C@@H]1CCN(c2cc(Nc3ncc(C)s3)nc(Sc3ccc(NC(=O)C4CC4)cc3)n2)C1 [Compound I-36]	≤ 10	≤ 50		
CN[C@H]1CCCN(c2cc(Nc3ncc(C)s3)nc(Sc3ccc(NC(=O)C4CC4)cc3)n2)C1 [Compound I-25]	≤ 10	50 to 200		
Cc1cnc(Nc2cc(N3CC[C@H](N(C)C)C3)nc(Sc3ccc(NC(=O)C4CC4)cc3)n2)s1 [Compound I-30]	≤ 10	50 to 200		
CCC(=O)Nc1ccc(Sc2nc(Nc3cc(C)n[nH]3)cc(N3CCC(OC(C)(C)C)CC3)n2)cc1 [Compound I-85]	≤ 10		10 to 50	
